The values below come from patent US11607422B2, “Uttroside B and derivatives thereof as therapeutics for hepatocellular carcinoma” (Rajiv Gandhi Centre for Biotechnology, an Autonomous …, priority 2016, dated 2023).

In one series the test system is Swiss albino mice. Description: Chronic toxicity study (3 months). Type of series: in vivo. On the procedure: Swiss albino mice were randomly divided into 2 groups of 6 animals each and were allowed to acclimatize for a week. Group I received vehicle and Group II received 10 mg/Kg body weight of Uttroside B. The compounds were given as intraperitonial injection on alternate days, thrice in a week, for 3 months. The animals were observed frequently during this period after which, the animals were euthanized in a CO2 chamber. The blood serum was collected for analyzing biochemical parameters of liver function, the abnormal values of which are indicative of hepatotoxicity. The liver was fixed in 10% buffered formalin and the thin cryostat sections were stained with haematoxylin and eosin for histopathological evaluation.^9

Another series has as its system HepG2 cells. The series is described as follows: Autophagy flux assay using PtfLC3 (GFP-RFP-LC3) reporter protein. In kind it is cell-based, human. As to conditions: 500 nM, 24 h, transfected HepG2. The text has this:
The development of a new vector called ptf-LC3B leading to the expression of a double-tagged GFP-RFP-LC3B protein has helped in the study of autophagy flux and this recombinant protein allows to distinguish between autophagosomes (in yellow) and autophagolysosomes (in red).^33 The pGFP-mRFP-LC3B (ptf-LC3) vector was purchased from Addgene (21074). Briefly, plasmid present in the bacterial pellet was isolated according to manufacturer's instruction (GenElute™ Plasmid Miniprep Kit-Sigma-Aldrich). HepG2 cells were transfected transiently with tandem repeats of GFP-RFP tagged LC3 (ptfLC3) using the Lipofectamine LTX and Plus Reagent Kit (Invitrogen, USA) according to manufacturer's protocol. Briefly, PtfLC3 vector Opti-MEM transfection medium (Solution A) was mixed with Lipofectamine reagent dissolved in Opti-MEM transfection medium (Solution B) and incubated for 45 min at room temperature. […]
Quantitative analysis of autophagy flux using tandem GFP-RFP LC3 reporter protein. […] FIG. 29 is a bar diagram showing the quantitative analysis of autophagy induced by Uttroside B in HepG2 cells. HepG2 cells were transfected transiently with plasmid encoding GFP-RFP-LC3 as described previously and the punctae observed were counted and plotted as a histogram. The next attempt was to verify and quantitate the autophagic flux induced by Uttroside B using a tandem GFP-RFP LC3 reporter protein. […]

With `C[C@H](CC[C@@]1(O)O[C@H]2C[C@H]3[C@@H]4CC[C@H]5C[C@@H](O[C@@H]6O[C@H](CO)[C@H](O[C@@H]7O[C@H](CO)[C@@H](O)[C@H](O[C@@H]8OC[C@@H](O)[C@H](O)[C@H]8O)[C@H]7O[C@@H]7O[C@H](CO)[C@@H](O)[C@H](O)[C@H]7O)[C@H](O)[C@H]6O)CC[C@]5(C)[C@H]4CC[C@]3(C)[C@H]2[C@@H]1C)CO[C@@H]1O[C@H](CO)[C@@H](O)[C@H](O)[C@H]1O` [Uttroside B], the “histopathological analysis of liver tissue, chronic” value in the series with Swiss albino mice (10 mg/kg) is on record as “did not manifest any morphological change characteristic of toxicity”. Further, the “total and differential WBC count, serum AST, ALT, ALP and BUN” value in the series on Swiss albino mice (10 mg/kg i.p. thrice weekly, 3 months) is “no significant difference in any of these parameters from their normal range of values”. For the same compound, in the series with HepG2 cells, the GFP-RFP-LC3 puncta entry is “increase in amount of yellow puncta and red puncta”.
